Earlier results, collected in US12364655B2, “Semisolid oral dispersions comprising active agents” (The Procter & Gamble Company, priority 2019, dated 2025).
Like-named read-outs stand apart in the source and are kept apart here.

Settings: from supplier Safety Data Sheet, supplier Product Data Sheet (estimated) or Wikipedia

## NC(N)=O.OO [Urea Peroxide, Urea Hydrogen Peroxide Adduct]
  Solubility in Water (number of parts by weight per 100 parts by weight of water): 80 parts by weight per 100 parts by weight of water
Listed as urea peroxide
  Solubility in Water (number of parts by weight per 100 parts by weight of water): 80 parts by weight per 100 parts
